Results taken from patent publication US20100125059A1, “1-BIARYLAZETIDINONE DERIVATIVE” (Teijin Pharma Limited, priority 2007, published 2010).
Read-outs that look alike come from different tables or passages of the source.

Legend:
Caco-2 cells = test: Cholesterol absorption inhibition assay (in vitro), [14C] cholesterol mixed micelles; assay type: cell-based; conditions: Homo sapiens, 24 hours, read-out: cholesterol absorption inhibitory activity; for inhibition at 12.5 µM: concentration of 12.5 μM; for inhibition at 10 µM: concentration of 10 μM
Method: This assay measures cholesterol absorption inhibitory activity by adding mixed micelles containing [^14C] cholesterol to cells and measuring cholesterol taken in the cells as oleic acid cholesteryl ester. The assay is conducted after Caco-2 cells are seeded on multi-well plates and cultured (culture medium: DMEM containing 10% fetal bovine serum, 1% non-essential amino acids, 1% penicillin, and 1% streptomycin) for 2 weeks. To each well, the micelle solution (in an amount required to provide the following final concentrations: 600 μM of sodium oleate, 50 μM of phosphatidyl choline, 5 mM of sodium taurocholate, 2.5 μM of cholesterol, and 2.5 μM of [^14C] cholesterol) and a test compound solution (in an amount required to provide the final concentration of 0.5 to 25 μM) or a solvent as a control are added, and incubation is started at 37° C. 24 hours later, the culture medium is removed, and the lipid component is extracted with hexane/2-propanol (3:2, v/v) and applied onto thin-layer silica gel plates. After drying, each plate is eluted with a mixture of hexane, diethyl ether, and acetic acid in a ratio of 83:16:1. The plates are photoexposed on imaging plates and analyzed using BAS-2500 (FUJIFILM). The amounts of light exposure of the areas corresponding to the cholesteryl ester are calculated. Background is measured using a blank space of the plate. Inhibition rates are calculated using values obtained by subtracting the background values from both values of the control and the test sample, respectively, in accordance with the following equation. A test value is calculated as a percentage (%) with respect to the control.
In the Equation 1, A is the control group, BG is a background, and B is the test compound.
The following results were obtained from the measurement by this method on cholesterol absorption inhibitory activity of the compounds of the present invention. The following results were obtained by the evaluation using concentrations of 10 μM and/or 12.5 μM.

[1] = system: hamsters fed a high cholesterol diet; test: Measurement of lipid lowering effect in hamsters fed a high cholesterol diet; assay type: in vivo, Male Golden Syrian hamsters; conditions: for inhibition in vivo at 0.01 mg/kg / inhibition in vivo at 0.1 mg/kg: Mesocricetus auratus, po, 168 h, gavage once daily, 7 days
How it was run: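 Male Golden Syrian hamsters (6/group) on 0.5% cholesterol diet, dosed by gavage once daily in corn oil at 0.01 to 10 mg/kg; serum and liver sampled 4 h after last dose. TC, TG and LDL-C measured enzymatically; effects expressed as % suppression versus control and normal-diet groups.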

[2] = read-out: serum LDL-C lowering effect (suppression rate of an increase in serum LDL-C concentration)
[3] = read-out: serum TC lowering effect (suppression rate of an increase in serum TC concentration)
[4] = dose 0.1 mg/kg, read-out: liver TC lowering effect (suppression rate of an increase in liver TC concentration)
[5] = dose 0.1 mg/kg, read-out: serum TG lowering effect (serum TG lowering rate)
[6] = dose 0.1 mg/kg, read-out: serum LDL-C lowering effect (suppression rate of an increase in serum LDL-C concentration)
[7] = dose 0.1 mg/kg, read-out: serum TC lowering effect (suppression rate of an increase in serum TC concentration)
[8] = read-out: liver TC lowering effect (suppression rate of an increase in liver TC concentration)

SMILES | inhibition at 12.5 µM (Caco-2 cells) [%] | inhibition in vivo at 0.1 mg/kg [1, 5] [%] | inhibition at 10 µM (Caco-2 cells) [%] | further results
O=C1[C@H](SC[C@H](O)c2ccc(Cl)cc2)[C@@H](c2ccc(O)cc2)N1c1ccc(-c2cncc(C(F)(F)F)c2)cc1 [Example 86, (3R,4R)-3-[(2R)-2-(4-chlorophenyl)-2-hydroxyethylthio]-4-(4-hydroxyphenyl)-1-[4-(5-trifluoromethylpyridin-3-yl)phenyl]azetidin-2-one] | ≥ 60 |  |  | inhibition in vivo at 0.01 mg/kg [1, 2]: ≥ 30%
O=C1[C@H](SC[C@H](O)c2ccc(F)cc2)[C@@H](c2ccc(O)cc2Cl)N1c1ccc(-c2cccnc2)cc1 [Example 59, (3R,4R)-3-[(2R)-2-(4-fluorophenyl)-2-hydroxyethylthio]-4-(2-chloro-4-hydroxyphenyl)-1-[4-(pyridin-3-yl)phenyl]azetidin-2-one] | ≥ 60 | ≥ 20 |  | inhibition in vivo at 0.01 mg/kg [1, 3]: ≥ 30%; inhibition in vivo at 0.1 mg/kg [1, 4]: ≥ 50%
Cc1ccc([C@@H](O)CS[C@H]2C(=O)N(c3ccc(-c4cccnc4)cc3)[C@@H]2c2ccc(O)cc2)cc1 [Example 45, (3R,4R)-3-[(2R)-2-hydroxy-2-(4-methylphenyl)ethylthio]-4-(4-hydroxyphenyl)-1-[4-(pyridin-3-yl)phenyl]azetidin-2-one] | ≥ 60 |  | ≥ 50 | inhibition in vivo at 0.1 mg/kg [1, 6]: ≥ 50%; inhibition in vivo at 0.1 mg/kg [1, 7]: ≥ 50%
N#Cc1cncc(-c2ccc(N3C(=O)[C@H](SC[C@H](O)c4ccc(Cl)cc4)[C@H]3c3ccc(O)cc3)cc2)c1 [Example 58, 5-(4-{(3R,4R)-3-[(2R)-2-(4-chlorophenyl)-2-hydroxyethylthio]-4-(4-hydroxyphenyl)-2-oxoazetidinyl}phenyl)pyridine-3-carbonitrile] | ≥ 60 | ≥ 20 | ≥ 50 | inhibition in vivo at 0.01 mg/kg [1, 8]: ≥ 30%; inhibition in vivo at 0.01 mg/kg [1, 2]: ≥ 30%
COc1ccc(-c2ccc(N3C(=O)[C@H](SC[C@H](O)c4ccc(F)cc4)[C@H]3c3ccc(O)cc3)cc2)c(OC)n1 [Example 7, (3R,4R)-3-[(2R)-2-(4-fluorophenyl)-2-hydroxyethylthio]-1-[4-(2,6-dimethoxypyridin-3-yl)phenyl]-4-(4-hydroxyphenyl)azetidin-2-one] |  | ≥ 20 | ≥ 50 | 
Cc1cc(O)ccc1[C@@H]1[C@@H](SC[C@H](O)c2ccc(F)cc2)C(=O)N1c1ccc(-c2cncc(C(F)(F)F)c2)cc1 [Example 99, (3R,4R)-3-[(2R)-2-(4-fluorophenyl)-2-hydroxyethylthio]-4-(4-hydroxy-2-methylphenyl)-1-[4-(5-trifluoromethylpyridin-3-yl)phenyl]azetidin-2-one] | ≥ 60 | ≥ 20 |  | 
O=C1[C@H](SC[C@H](O)c2ccc(F)cc2)[C@@H](c2ccc(O)cc2)N1c1ccc(-c2cncc(C(F)(F)F)c2)cc1 [Example 51, (3R,4R)-3-[(2R)-2-(4-fluorophenyl)-2-hydroxyethylthio]-4-(4-hydroxyphenyl)-1-[4-(5-trifluoromethylpyridin-3-yl)phenyl]azetidin-2-one] |  | ≥ 20 | ≥ 50 | inhibition in vivo at 0.01 mg/kg [1, 3]: ≥ 30%; a serum TC lowering effect at a dose of 0.1 mg/kg ([1]; Table 22, suppression rate of an increase in serum TC concentration, dose 0.1 mg/kg): 104%
O=C1[C@H](SC[C@H](O)c2ccc(F)cc2)[C@@H](c2ccc(O)cc2)N1c1ccc(-c2cccnc2Cl)cc1 [Example 15, (3R,4R)-3-[(2R)-2-(4-fluorophenyl)-2-hydroxyethylthio]-1-[4-(2-chloropyridin-3-yl)phenyl]-4-(4-hydroxyphenyl)azetidin-2-one] |  | ≥ 20 | ≥ 50 | inhibition in vivo at 0.1 mg/kg [1, 6]: ≥ 50%
Cc1ccc(-c2ccc(N3C(=O)[C@H](SC[C@H](O)c4ccc(F)cc4)[C@H]3c3ccc(O)cc3)cc2)cn1 [Example 20, (3R,4R)-3-[(2R)-2-(4-fluorophenyl)-2-hydroxyethylthio]-4-(4-hydroxyphenyl)-1-[4-(6-methylpyridin-3-yl)phenyl]azetidin-2-one] | ≥ 60 |  | ≥ 50 | inhibition in vivo at 0.01 mg/kg [1, 8]: ≥ 30%; inhibition in vivo at 0.01 mg/kg [1, 2]: ≥ 30%
O=C1[C@H](SC[C@H](O)c2ccc(Cl)c(Cl)c2)[C@@H](c2ccc(O)cc2)N1c1ccc(-c2cccnc2)cc1 [Example 28, (3R,4R)-3-[(2R)-2-(3,4-dichlorophenyl)-2-hydroxyethylthio]-4-(4-hydroxyphenyl)-1-[4-(pyridin-3-yl)phenyl]azetidin-2-one] |  |  | ≥ 50 | inhibition in vivo at 0.1 mg/kg [1, 4]: ≥ 50%; inhibition in vivo at 0.1 mg/kg [1, 7]: ≥ 50%
O=C1[C@H](SC[C@H](O)c2ccc3occc3c2)[C@@H](c2ccc(O)cc2)N1c1ccc(-c2cccnc2)cc1 [Example 31, (3R,4R)-3-((2R)-2-benzo[b]furan-5-yl-2-hydroxyethylthio)-4-(4-hydroxyphenyl)-1-[4-(pyridin-3-yl)phenyl]azetidin-2-one] | ≥ 60 | ≥ 20 | ≥ 50 | inhibition in vivo at 0.01 mg/kg [1, 3]: ≥ 30%
O=C1[C@H](SC[C@H](O)c2ccc(F)cc2Cl)[C@@H](c2ccc(O)cc2)N1c1ccc(-c2cccnc2)cc1 [Example 90, (3R,4R)-3-[(2R)-2-(2-chloro-4-fluorophenyl)-2-hydroxyethylthio]-4-(4-hydroxyphenyl)-1-[4-(pyridin-3-yl)phenyl]azetidin-2-one] | ≥ 60 |  |  | inhibition in vivo at 0.1 mg/kg [1, 6]: ≥ 50%; inhibition in vivo at 0.1 mg/kg [1, 7]: ≥ 50%
COc1ccc(-c2ccc(N3C(=O)[C@H](SC[C@H](O)c4ccc(F)cc4)[C@H]3c3ccc(O)cc3)cc2)cn1 [Example 14, (3R,4R)-3-[(2R)-2-(4-fluorophenyl)-2-hydroxyethylthio]-4-(4-hydroxyphenyl)-1-[4-(6-methoxypyridin-3-yl)phenyl]azetidin-2-one] |  | ≥ 20 | ≥ 50 | 
COc1cc(N2C(=O)[C@H](SC[C@H](O)c3ccc(F)cc3)[C@H]2c2ccc(O)cc2)ccc1-c1cccnc1 [Example 52, (3R,4R)-3-[(2R)-2-(4-fluorophenyl)-2-hydroxyethylthio]-4-(4-hydroxyphenyl)-1-[3-methoxy-4-(pyridin-3-yl)phenyl]azetidin-2-one] |  | ≥ 20 | ≥ 50 | 
COc1ccncc1-c1ccc(N2C(=O)[C@H](SC[C@H](O)c3ccc(Cl)cc3)[C@H]2c2ccc(O)cc2)cc1 [Example 61, (3R,4R)-3-[(2R)-2-(4-chlorophenyl)-2-hydroxyethylthio]-4-(4-hydroxyphenyl)-1-[4-(4-methoxypyridin-3-yl)phenyl]azetidin-2-one] | ≥ 60 |  |  | inhibition in vivo at 0.1 mg/kg [1, 6]: ≥ 50%
O=C1[C@H](SC[C@H](O)c2ccc(Cl)cc2)[C@@H](c2ccc(O)cc2)N1c1ccc(-c2cccnc2)cc1 [Example 32, (3R,4R)-3-[(2R)-2-(4-chlorophenyl)-2-hydroxyethylthio]-4-(4-hydroxyphenyl)-1-[4-(pyridin-3-yl)phenyl]azetidin-2-one] | ≥ 60 | ≥ 20 | ≥ 50 | inhibition in vivo at 0.01 mg/kg [1, 2]: ≥ 30%
Cc1cncc(-c2ccc(N3C(=O)[C@H](SC[C@H](O)c4ccc(Cl)cc4)[C@H]3c3ccc(O)cc3)cc2)c1 [Example 85, (3R,4R)-3-[(2R)-2-(4-chlorophenyl)-2-hydroxyethylthio]-4-(4-hydroxyphenyl)-1-[4-(5-methylpyridin-3-yl)phenyl]azetidin-2-one] | ≥ 60 |  |  | inhibition in vivo at 0.01 mg/kg [1, 2]: ≥ 30%; inhibition in vivo at 0.01 mg/kg [1, 3]: ≥ 30%
